# Test system: 633275-114-R-J1-PDC complex spheroids, viability
# Assay: Anticancer human tumor 633275-114-R-J1-PDC patient-derived endometrial adenocarcinoma cell line growth inhibition [GQUAD]
# Details: for IC50: curve of first compound; for viability, T/C: stronger effect = lower value
# Outline: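 Tumor cells were grown as complex spheroids with HUVEC endothelial cells and mesenchymal stem cells as stroma. G-quadruplex stabilizers were combined with targeted agents over half-log dilutions from near the clinical Cmax, or from 10 microM.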
# [1] = second compound 0.0316 µM, first compound 0.0316 µM
# [2] = second compound 0.0316 µM, first compound 0.1 µM
# [3] = second compound 0.0316 µM, first compound 0.316 µM
# [4] = second compound 0.0316 µM, first compound 1 µM
# [5] = second compound 0.0316 µM, first compound 3.16 µM
# [6] = second compound 0.0316 µM, first compound 10 µM
# [7] = second compound 0.1 µM, first compound 0.0316 µM
# [8] = second compound 0.1 µM, first compound 0.1 µM
# [9] = second compound 0.1 µM, first compound 0.316 µM
# [10] = second compound 0.1 µM, first compound 1 µM
# [11] = second compound 0.1 µM, first compound 3.16 µM
# [12] = second compound 0.1 µM, first compound 10 µM
# [13] = second compound 0.316 µM, first compound 0.0316 µM
# [14] = second compound 0.316 µM, first compound 0.1 µM
# [15] = second compound 0.316 µM, first compound 0.316 µM
# [16] = second compound 0.316 µM, first compound 1 µM
# [17] = second compound 0.316 µM, first compound 3.16 µM
# [18] = second compound 0.316 µM, first compound 10 µM
# [19] = second compound 1 µM, first compound 0.0316 µM
# [20] = second compound 1 µM, first compound 0.1 µM
# [21] = second compound 1 µM, first compound 0.316 µM
# [22] = second compound 1 µM, first compound 1 µM
# [23] = second compound 1 µM, first compound 3.16 µM
# [24] = second compound 1 µM, first compound 10 µM
# [25] = second compound 3.16 µM, first compound 0.0316 µM
# [26] = second compound 3.16 µM, first compound 0.1 µM
# [27] = second compound 3.16 µM, first compound 0.316 µM
# [28] = second compound 3.16 µM, first compound 1 µM
# [29] = second compound 3.16 µM, first compound 3.16 µM
# [30] = second compound 3.16 µM, first compound 10 µM
# [31] = second compound 10 µM, first compound 0.0316 µM
# [32] = second compound 10 µM, first compound 0.1 µM
# [33] = second compound 10 µM, first compound 0.316 µM
# [34] = second compound 10 µM, first compound 1 µM
# [35] = second compound 10 µM, first compound 3.16 µM
# [36] = second compound 10 µM, first compound 10 µM
# 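Further: spheroids exposed to the agents for seven days.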
# 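Wherever viability, T/C is given: percent of DMSO vehicle control viability which is 100%.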
structure (smiles),measurement,setting,value
COc1cc(C2c3cc4c(cc3C(OC3OC5COC(C)OC5C(O)C3O)C3COC(=O)C23)OCO4)cc(OC)c1O (stereo not drawn) + Cc1cnc(CNC(=O)c2c(=O)c3ccc(N4CCCN(C)CC4)nc3n3c2sc2ccccc23)cn1,IC50,second compound 0.0316 µM,185 nM
same,IC50,second compound 0.1 µM,86.6 nM
same,IC50,second compound 0.316 µM,< 31.6 nM
same,IC50,second compound 1 µM,< 31.6 nM
same,IC50,second compound 3.16 µM,< 31.6 nM
same,IC50,second compound 10 µM,< 31.6 nM
same,"viability, T/C",[1],53.3%
same,"viability, T/C",[2],55.2%
same,"viability, T/C",[3],47.4%
same,"viability, T/C",[4],41.3%
same,"viability, T/C",[5],36.6%
same,"viability, T/C",[6],27.8%
same,"viability, T/C",[7],54.4%
same,"viability, T/C",[8],45.2%
same,"viability, T/C",[9],50.1%
same,"viability, T/C",[10],40%
same,"viability, T/C",[11],31.8%
same,"viability, T/C",[12],29.4%
same,"viability, T/C",[13],43.4%
same,"viability, T/C",[14],45.8%
same,"viability, T/C",[15],43.6%
same,"viability, T/C",[16],41.4%
same,"viability, T/C",[17],31.9%
same,"viability, T/C",[18],28.1%
same,"viability, T/C",[19],40.9%
same,"viability, T/C",[20],41%
same,"viability, T/C",[21],43.5%
same,"viability, T/C",[22],41%
same,"viability, T/C",[23],34.1%
same,"viability, T/C",[24],28.4%
same,"viability, T/C",[25],31.7%
same,"viability, T/C",[26],32.9%
same,"viability, T/C",[27],35.9%
same,"viability, T/C",[28],32.7%
same,"viability, T/C",[29],34.2%
same,"viability, T/C",[30],25.5%
same,"viability, T/C",[31],28.2%
same,"viability, T/C",[32],31.4%
same,"viability, T/C",[33],28.7%
same,"viability, T/C",[34],32.9%
same,"viability, T/C",[35],27.2%
same,"viability, T/C",[36],20.9%
Nc1ccn(C2OC(CO)C(O)C2(F)F)c(=O)n1 (stereo not drawn) + Cc1[nH]c2ccc(F)cc2c1-c1nc2c3cccnc3c3ncccc3c2[nH]1,IC50,second compound 0.0316 µM,< 31.6 nM
same,IC50,second compound 0.1 µM,< 31.6 nM
same,IC50,second compound 0.316 µM,< 31.6 nM
same,IC50,second compound 1 µM,< 31.6 nM
same,IC50,second compound 3.16 µM,< 31.6 nM
same,IC50,second compound 10 µM,< 31.6 nM
same,"viability, T/C",[1],29.7%
same,"viability, T/C",[2],25.6%
same,"viability, T/C",[3],25.9%
same,"viability, T/C",[4],26.4%
same,"viability, T/C",[5],22.9%
same,"viability, T/C",[6],24.4%
same,"viability, T/C",[7],33.2%
same,"viability, T/C",[8],24.3%
same,"viability, T/C",[9],26.4%
same,"viability, T/C",[10],27.3%
same,"viability, T/C",[11],24.8%
same,"viability, T/C",[12],20.9%
same,"viability, T/C",[13],31.2%
same,"viability, T/C",[14],28.8%
same,"viability, T/C",[15],26.1%
same,"viability, T/C",[16],24.2%
same,"viability, T/C",[17],27.1%
same,"viability, T/C",[18],19.9%
same,"viability, T/C",[19],30.9%
same,"viability, T/C",[20],25.6%
same,"viability, T/C",[21],26%
same,"viability, T/C",[22],25.9%
same,"viability, T/C",[23],24%
same,"viability, T/C",[24],20.1%
same,"viability, T/C",[25],26.1%
same,"viability, T/C",[26],24.4%
same,"viability, T/C",[27],22.6%
same,"viability, T/C",[28],23.4%
same,"viability, T/C",[29],25.7%
same,"viability, T/C",[30],17.9%
same,"viability, T/C",[31],26.8%
same,"viability, T/C",[32],24.5%
same,"viability, T/C",[33],23.8%
same,"viability, T/C",[34],24.1%
same,"viability, T/C",[35],22.5%
same,"viability, T/C",[36],18.8%
CC1COCCN1c1cc(-c2ccnn2C)c2ccnc(-c3ccn[nH]3)c2n1 (stereo not drawn) + Cc1[nH]c2ccc(F)cc2c1-c1nc2c3cccnc3c3ncccc3c2[nH]1,IC50,second compound 0.0316 µM,146 nM
same,IC50,second compound 0.1 µM,156 nM
same,IC50,second compound 0.316 µM,191 nM
same,IC50,second compound 1 µM,116 nM
same,IC50,second compound 3.16 µM,70.4 nM
same,IC50,second compound 10 µM,74.8 nM
same,"viability, T/C",[1],77.3%
same,"viability, T/C",[2],56.4%
same,"viability, T/C",[3],37.1%
same,"viability, T/C",[4],27.7%
same,"viability, T/C",[5],21.9%
same,"viability, T/C",[6],16.8%
same,"viability, T/C",[7],80.5%
same,"viability, T/C",[8],57.5%
same,"viability, T/C",[9],38.3%
same,"viability, T/C",[10],26.3%
same,"viability, T/C",[11],21.4%
same,"viability, T/C",[12],17%
same,"viability, T/C",[13],77.6%
same,"viability, T/C",[14],62.9%
same,"viability, T/C",[15],39%
same,"viability, T/C",[16],28.1%
same,"viability, T/C",[17],21.2%
same,"viability, T/C",[18],18.4%
same,"viability, T/C",[19],77.9%
same,"viability, T/C",[20],52.5%
same,"viability, T/C",[21],34.6%
same,"viability, T/C",[22],26.6%
same,"viability, T/C",[23],23%
same,"viability, T/C",[24],17.7%
same,"viability, T/C",[25],60.9%
same,"viability, T/C",[26],46.1%
same,"viability, T/C",[27],31.1%
same,"viability, T/C",[28],26.8%
same,"viability, T/C",[29],21.7%
same,"viability, T/C",[30],17.5%
same,"viability, T/C",[31],61%
same,"viability, T/C",[32],46.9%
same,"viability, T/C",[33],30.8%
same,"viability, T/C",[34],25.1%
same,"viability, T/C",[35],21.1%
same,"viability, T/C",[36],18.6%
COc1ccc([C@@H](O)c2cc(-c3ncnc4cc(N5CCOCC5)ccc34)c(F)cc2Cl)nn1 + CN(C)c1ccc(Nc2c3ccc(NC(=O)CCN4CCCC4)cc3nc3cc(NC(=O)CCN4CCCC4)ccc23)cc1,IC50,second compound 0.0316 µM,4670 nM
same,IC50,second compound 0.1 µM,3730 nM
same,IC50,second compound 0.316 µM,2640 nM
same,IC50,second compound 1 µM,1710 nM
same,IC50,second compound 3.16 µM,938 nM
same,IC50,second compound 10 µM,< 31.6 nM
same,"viability, T/C",[1],108%
same,"viability, T/C",[2],97.2%
same,"viability, T/C",[3],83.7%
same,"viability, T/C",[4],74.7%
same,"viability, T/C",[5],55.7%
same,"viability, T/C",[6],37.6%
same,"viability, T/C",[7],96%
same,"viability, T/C",[8],102%
same,"viability, T/C",[9],88.9%
same,"viability, T/C",[10],71.1%
same,"viability, T/C",[11],55.3%
same,"viability, T/C",[12],32.3%
same,"viability, T/C",[13],92.5%
same,"viability, T/C",[14],91.6%
same,"viability, T/C",[15],93.5%
same,"viability, T/C",[16],65.3%
same,"viability, T/C",[17],49.8%
same,"viability, T/C",[18],30.9%
same,"viability, T/C",[19],91.8%
same,"viability, T/C",[20],88%
same,"viability, T/C",[21],81.3%
same,"viability, T/C",[22],59.6%
same,"viability, T/C",[23],38.7%
same,"viability, T/C",[24],26.8%
same,"viability, T/C",[25],84.2%
same,"viability, T/C",[26],81.2%
same,"viability, T/C",[27],73.7%
same,"viability, T/C",[28],46.9%
same,"viability, T/C",[29],30.6%
same,"viability, T/C",[30],20.4%
same,"viability, T/C",[31],33.8%
same,"viability, T/C",[32],34.8%
same,"viability, T/C",[33],21.5%
same,"viability, T/C",[34],13.8%
same,"viability, T/C",[35],11.8%
same,"viability, T/C",[36],9.3%
